Tests used:
[1] = cited from earlier work
human tumor cells = experiment: Autophagy activation (LC3-II, P62/SQSTM1, GFP-LC3); type: cell-based; conditions: at bioavailable concentrations
Description: In addition, there are different molecular events associating pterostilbene with autophagy activation: a) an increase of LC3-II form, indicating the processing of LC3 protein to its lapidated form; and b) an increase in P62/SQSTM1 bands and GFP-LC3 punctuation, indicating P62 accumulation and translocation of LC3 to autophagic membranes, respectively. An acute loss of tubulin organization, indicating cell cycle arrest, was also detected by immunochemistry.

HT-29 xenografts = experiment: HT-29 xenograft growth; type: in vivo, nu/nu nude mice; conditions: i.v., 40 mg of t-PTER or QUER/kg×day, single PF
Experimental: Tumor growth was measured during a 30-day period. Tumor volume, one week after inoculation and before PF administration, was of 56+15 mm3. A. […] B. Growth profile of control ([…]) and t-PTER- and QUER (∘) (20 mg of each PF/kg)-treated HT-29-bearing mice. Data are means±S.D. of 18-20 mice per group. The significant test refers, for all groups, to the comparison between PTER and/or QUER and controls (treated with physiological saline) (*P<0.01). For HT-29 cancer cell xenograft experiments, female nu/nu nude mice (ages 6 to 8 weeks; […] Tumor volume was calculated based on two dimensions, measured using calipers, and was expressed in cubic millimeters according to the formula: […] For histological analysis the surgical and xenograft tissue samples were fixed in 4% formaldehyde, paraffin embedded, and stained with hematoxilin & eosin and safran. […] This study was conducted in compliance with international laws and policies (EEC Directive 86/609, OJ L 358. 1, Dec. 12, 1987; and NIH Guide for the Care and Use of Laboratory Animals, NIH Publ. No. 85-23, 1985). X rays were administered using a […] SL75 linear accelerator from Philips. For this purpose each mouse was anesthetized with nembutal (50 mg/kg i.p.), and fixed on a Perspex platform.

[2] = cited from earlier work; remark: listed apart in the source

Compound | half-life in blood ([1]; rabbit, in vivo) [min] | autophagy (human tumor cells) | CRC growth inhibition compared with the 20 mg/kg×day dose (HT-29 xenografts) | half-life in circulating blood ([1]; after i.v. administration of 20 mg/kg to e.g. rabbits) [min] | reduction in glomerular flow rate ([2]; 1400 mg QUER/m^2, the two affected patients, first 24 hours) [%] | tolerability ([2]; daily i.v. bolus doses of 100 mg QUER/m2, human patients) | renal toxicity ([2]; i.v. bolus of 1400 mg QUER/m^2 once weekly for three weeks)
COc1cc(/C=C/c2ccc(O)cc2)cc(OC)c1 [t-PTER, trans-3,5-dimethoxy-4′-hydroxystilbene] | ~77.9 | activates autophagy | not significantly different | – | – | – | –
Oc1ccc(/C=C/c2cc(O)cc(O)c2)cc1 [RI, trans-3,5,4′-trihydroxystilbene, reference compound] | – | – | – | ~14.4 | – | – | –
O=c1c(O)c(-c2ccc(O)c(O)c2)oc2cc(O)cc(O)c12 [QUER, quercetin] | – | – | not significantly different | – | ~20 | well tolerated | two of ten patients
